Measured values: patent EP2216022A1, “USE OF C[…] THE TREATMENT OF BASAL CELL CARCINOMA AND OTHER TUMORS” (Tas, Sinan, priority 2001, dated 2002)

How the values were obtained:
Format in all cases: in vivo, patient
[1] = system: normal epidermis and hair follicles; conditions: Normal skin exposed to the same schedule and doses of cyclopamine as the BCC's; undifferentiated basal layer cells preserved
Source text: (§1) These regions are seen to contain residual BCC`s displaying large cysts in the tumor center and smaller cystic structures of various sizes located among the residual BCC cells towards the periphery. • Fig 2D and Fig 2E show 1000X magnified appearances from the interior and palisading peripheral regions of these residual BCC's and show the presence of massive apoptotic activity among the residual BCC cells regardless of the tumor region.
4B and 4C Higher power views from different areas of cyclopamine-treated epidermis showing Ber-Ep4 labelling of the basal cells. […] Original magnification is 400X for 4A and 1000X for 4B, 4C, 4D, immunohistochemical detection procedure is the same as in Fig 3A, 3B; labelling is indicated by brown coloring.

[2] = system: BCC's; assay: Retraction of treated BCC's from stroma (arrest of proliferation), Periodic Acid-Schiff and Alcian blue sections; conditions: Cyclopamine-treated but not placebo-treated BCC's; associated with arrest of proliferation; topical cream 18 mM cyclopamine
Source text: as §1
Arrest of the proliferation of BCC's is known to be associated with their retraction from stroma. Although retraction from stroma can also be caused artefactually by improper fixation and processing of the tissues, adherence to published technical details ensures avoidance of such artefacts.
(§2) Ber-Ep4 is a known differentiation marker that stains the BCC cells as well as the undifferentiated cells of the normal epidermis basal layer and of hair follicles but not the differentiated upper layer cells of normal epidermis. […] 3D and 3E : Decreased expression of p53 as detected by the monoclonal antibody DO-7 in cyclopamine-treated BCC's (3D) in comparison to the placebo-treated BCC's (3E). Expression of p53 is known to decrease upon differentiation of the epidermal basal cells and upon differentiation of cultured keratinocytes. It is also well known that the amount of p53, detectable by DO-7, increases in cells when they are exposed to DNA-damaging agents. […]

[3] = system: BCC cells; assay: Immunohistochemical Ber-Ep4 labelling (differentiation marker) of treated BCC's; conditions: topical cream 18 mM cyclopamine, four times per day, excised on fifth and sixth days, means ± standard deviations, p < 0.001 vs placebo
Source text: as §1
The loss of translucency in the cyclopamine-treated BCC's raises the intriguing possibility of differentiation of BCC's under the influence of cyclopamine. This possibility, which can be tested by immunohistochemical analyses of the BCC's, is found to be the case in this invention. In normal epidermis, differentiation of basal tayer cells to the upper layer cells is accompanied by a loss of labelling with the monoclonal antibody Ber-Ep4. Ber-Ep4 labels also the BCC cells and is a known marker for these neoplasms.
(§3) Ber-Ep4 is a known differentiation marker that stains the BCC cells as well as the undifferentiated cells of the normal epidermis basal layer and of hair follicles but not the differentiated upper layer cells of normal epidermis. […] 3D and 3E : Decreased expression of p53 as detected by the monoclonal antibody DO-7 in cyclopamine-treated BCC's (3D) in comparison to the placebo-treated BCC's (3E). Expression of p53 is known to decrease upon differentiation of the epidermal basal cells and upon differentiation of cultured keratinocytes. It is also well known that the amount of p53, detectable by DO-7, increases in cells when they are exposed to DNA-damaging agents. […] Original magnifications are 400X for 3A, 3B, 3D, 3E, 1000X for 3C and 100X for 3F, 3G. All immunohistochemical labellings are with peroxidase-conjugated streptavidin binding to biotinylated secondary antibody; labelling is Indicated by the brown-colored staging. Sections shown in 3F and 3G are stained with Periodic Acid-Schiff and Alcian blue.

[4] = system: basal cell carcinomas (BCC's); assay: Topical cyclopamine cream on basal cell carcinomas: clinical regression; conditions: Two BCC's (nasolabial fold, forehead); topical cream 18 mM cyclopamine, 10 ± 2 µl four times per day; visual disappearance of several tumor areas within less than a week, loss of translucency
Source text: as §1
1C : BCC, located on forehead, prior to tretment.

[5] = system: BCC cells; assay: Apoptosis by morphological criteria on hematoxylene-eosine stained sections of excised treated BCC's; conditions: topical cream 18 mM cyclopamine, 10 ± 2 µl four times per day, excised on fifth and sixth days, means ± standard deviations, at least 16 high-power (1000 X) fields, p < 0.001 vs placebo
Source text: as §1
Cells undergoing apoptosis are known to be removed by macrophages and by nearby cells in normal tissues and the quantitation of apoptotic activity by morphological criteria on hematoxylene-eosine stained sections is known to provide an underestimate.
Fig 2A, 2B, 2C, 2D, 2E, 2F : Microscopic appearences of the cyclopamine- and placebo-treated BCC's, showing the cyclopamine-induced massive apoptotic death and removal of the tumor cells and the disappearence of tumor nodules to leave behind cystic spaces with no tumor cells. Skin areas corresponding to the pre-treatment positions of the BCC's were excised surgically on the fifth and sixth days of cyclopamine exposure with a margin of normal tissue and subjected to conventional fixation, sectioning and hematoxylene-eosine staining for microscopic analyses. 2A : Large cyst in the dermis corresponding to the position of a disappeared tumor nodule showing no residual tumor cells. […]

[6] = system: p53; assay: Immunohistochemical DO-7 labelling (p53 expression) of treated BCC's; conditions: topical cream 18 mM cyclopamine; for % Of Cells Labelled With DO-7: four times per day, excised on fifth and sixth days, means ± standard deviations, p < 0.001 vs placebo
Source text: as §1
The p53 is a master regulator of the cellular response to DNA-damage. Amount of this protein is known to increase in the cell nucleus following exposure of cells to genotoxic agents. When the DNA-damage is increased beyond a threshold, p53 serves for the apoptotic death of cells. Radiation therapy of cancer and the genotoxic cancer chemotherapeutics that are currently common, act largely by this mechanism, i.e. by causation of apoptosis secondary to the damaging of DNA. The monoclonal antibody DO-7 can bind both normal and missense mutant (i.e., nonfunctional) forms of p53 and is known to be capable of detecting the increase of p53 in the cells following exposure to DNA-damaging agents.
Since expression of p53 is known to decrease in epidermal cells upon differentiation, the decreased DO-7 labelling of the cyclopamine-treated BCC's is likely to be secondary to the cyclopamine-induced differentiation of the BCC cells.
as §2

[7] = system: BCC cells; assay: Ulex Europaeus lectin type 1 labelling (differentiation marker) of treated BCC's; conditions: Residual cells of cyclopamine-treated BCC's; lectin normally does not label BCC's; topical cream 18 mM cyclopamine
Source text: as §1
as §3, with “Sections shown in 3F and 3G are stained with Periodic Acid-Schiff and Alcian blue.” left out

[8] = Non-palisading (interior) cells of the BCC's
[9] = Peripheral palisading cells of the BCC's

CC1=C2C[C@H]3[C@@H](CC=C4C[C@@H](O)CC[C@@]43C)[C@@H]2CC[C@]12O[C@@H]1C[C@H](C)CN[C@H]1[C@H]2C [Cyclopamine]
pattern of labelling with Ber-Ep4 of cyclopamine-treated normal epidermis and hair follicle [1]: normal pattern of labelling | retraction of BCC's from stroma [2]: consistently retracted from stroma | % Of Cells Labelled With Ber-Ep4 [3, 8]: 0 ± 0% | % Of Cells Labelled With Ber-Ep4 ([3]; Non-palisading (interior) cells of the BCC's, listed as cyclopamine): none | % Of Cells Labelled With Ber-Ep4 [3, 9]: 0 ± 0% | % Of Cells Labelled With Ber-Ep4 ([3]; Peripheral palisading cells of the BCC's, listed as cyclopamine): none | clinical regressions of the BCC's [4]: rapid clinical regressions | % Of Cells Showing ≥ 2 Morphological Signs Of Apoptosis On H&E Stained Tissue Sections [5, 8]: 18 ± 11% | % Of Cells Showing ≥ 2 Morphological Signs Of Apoptosis On H&E Stained Tissue Sections [5, 9]: 20 ± 8% | DO-7 labelling intensity and the frequency of labelled cells ([6]; Cyclopamine-treated BCC's in comparison to placebo-treated BCC's): markedly decreased | % Of Cells Labelled With DO-7 [6, 8]: 5 ± 3% | % Of Cells Labelled With DO-7 [6, 9]: 16 ± 11% | labelling of the residual cells with Ulex Europaeus lectin type 1 [7]: heterogenous labelling
